This is an account of results in article PMC4012456 (Marine Drugs, 2014).

Counter-ions that a name gives are not always drawn. Like-named read-outs stand apart in the source and are kept apart here.

The target of assay [1] is T1, murine muscle-type nAChR (Mus musculus, UniProt P02716+P04756+P09690+P20782).
T1 construct: expressed in transfected cells; host or cells: Xenopus laevis oocytes injected with plasmid DNA (CMV promoter)
Nature of the assay: electrophysiology on muscle nAChR expressed in Xenopus laevis oocytes. In kind it is cell-based. The following applies: for inhibition of agonist-evoked current on muscle nAChR (in words): 10 μM acetylcholine; for reversibility of inhibition of muscle nAChR: wash out.

Assay [2] addresses L. stagnalis AChBP (Lymnaea stagnalis, UniProt P58154). More on the design: method as in PMID 18338186. To be noted: read-out: Kd, affinity to L. stagnalis AChBP; quenching of intrinsic tryptophan fluorescence; cited from earlier work.
The mark [3] stands for this setting: 10 μM compound, Xenopus oocytes.

T1 sequence (P04756 21-457): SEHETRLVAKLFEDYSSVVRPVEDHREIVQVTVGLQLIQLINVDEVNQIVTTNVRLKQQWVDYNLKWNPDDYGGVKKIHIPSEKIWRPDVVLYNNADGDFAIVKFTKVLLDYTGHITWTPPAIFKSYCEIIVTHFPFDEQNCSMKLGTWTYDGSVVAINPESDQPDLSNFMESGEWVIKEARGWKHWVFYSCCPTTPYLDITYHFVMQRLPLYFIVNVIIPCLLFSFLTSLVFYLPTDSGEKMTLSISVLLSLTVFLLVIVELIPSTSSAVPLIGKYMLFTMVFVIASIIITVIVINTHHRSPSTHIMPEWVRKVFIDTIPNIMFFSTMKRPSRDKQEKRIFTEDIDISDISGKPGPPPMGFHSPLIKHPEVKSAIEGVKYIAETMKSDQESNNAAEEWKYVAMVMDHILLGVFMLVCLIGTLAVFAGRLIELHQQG
T1 sequence (P09690 24-501): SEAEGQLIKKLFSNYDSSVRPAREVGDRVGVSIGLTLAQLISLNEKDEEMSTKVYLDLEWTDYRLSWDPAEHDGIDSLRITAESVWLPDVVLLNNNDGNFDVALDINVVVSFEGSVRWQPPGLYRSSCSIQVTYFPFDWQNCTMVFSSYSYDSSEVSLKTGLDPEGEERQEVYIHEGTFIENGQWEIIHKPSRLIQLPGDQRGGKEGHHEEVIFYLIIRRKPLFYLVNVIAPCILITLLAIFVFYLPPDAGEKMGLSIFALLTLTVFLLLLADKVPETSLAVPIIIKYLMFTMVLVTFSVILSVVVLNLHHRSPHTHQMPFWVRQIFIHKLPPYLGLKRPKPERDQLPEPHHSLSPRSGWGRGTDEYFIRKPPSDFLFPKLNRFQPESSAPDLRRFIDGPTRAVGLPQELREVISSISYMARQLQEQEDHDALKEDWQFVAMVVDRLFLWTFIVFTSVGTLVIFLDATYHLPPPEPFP
T1 sequence (P02716 25-520): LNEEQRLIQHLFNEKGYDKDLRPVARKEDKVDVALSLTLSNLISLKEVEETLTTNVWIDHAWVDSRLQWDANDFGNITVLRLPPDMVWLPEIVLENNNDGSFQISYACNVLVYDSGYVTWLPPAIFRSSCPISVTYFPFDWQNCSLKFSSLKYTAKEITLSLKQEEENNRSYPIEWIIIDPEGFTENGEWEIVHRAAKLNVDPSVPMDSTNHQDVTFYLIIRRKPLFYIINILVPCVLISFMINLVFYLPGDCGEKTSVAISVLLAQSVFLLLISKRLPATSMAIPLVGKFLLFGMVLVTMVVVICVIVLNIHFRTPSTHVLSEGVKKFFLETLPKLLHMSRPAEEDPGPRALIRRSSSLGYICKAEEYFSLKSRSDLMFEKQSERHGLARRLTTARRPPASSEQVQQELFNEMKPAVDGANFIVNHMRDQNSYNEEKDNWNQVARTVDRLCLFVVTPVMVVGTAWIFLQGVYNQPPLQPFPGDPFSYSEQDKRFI
T1 sequence (P20782 21-493): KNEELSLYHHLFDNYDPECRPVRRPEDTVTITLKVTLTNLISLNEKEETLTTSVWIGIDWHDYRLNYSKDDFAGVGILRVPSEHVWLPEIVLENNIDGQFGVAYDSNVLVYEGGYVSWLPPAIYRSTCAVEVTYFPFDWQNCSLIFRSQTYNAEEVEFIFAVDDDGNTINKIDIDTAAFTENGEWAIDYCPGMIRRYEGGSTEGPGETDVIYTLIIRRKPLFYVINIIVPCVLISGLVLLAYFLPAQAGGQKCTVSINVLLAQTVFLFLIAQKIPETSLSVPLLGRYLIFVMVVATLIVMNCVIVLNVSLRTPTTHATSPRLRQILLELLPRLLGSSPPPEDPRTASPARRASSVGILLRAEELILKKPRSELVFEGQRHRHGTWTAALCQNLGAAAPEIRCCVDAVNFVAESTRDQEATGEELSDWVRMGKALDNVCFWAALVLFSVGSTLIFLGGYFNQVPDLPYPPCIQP
Sequence of L. stagnalis AChBP (P58154 20-229 limits assumed): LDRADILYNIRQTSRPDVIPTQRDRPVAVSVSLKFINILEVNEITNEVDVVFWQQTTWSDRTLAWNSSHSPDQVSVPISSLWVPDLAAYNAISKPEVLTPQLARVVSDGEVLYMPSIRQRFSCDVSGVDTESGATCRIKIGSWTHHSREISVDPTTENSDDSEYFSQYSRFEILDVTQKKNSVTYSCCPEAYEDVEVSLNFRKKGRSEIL

On to `C[C@@H](N)[C@H](O)CCCCCCCCCCCCCCC(=O)CCCCCCC[C@@H](O)[C@@H](C)N` [Compound 2, aglycone of rhizochalin], for which the midpoint of inhibition in assay [1], the IC50, lay at 2 ± 0.3 µM. Further, in assay [1] (setting [3]), the “inhibition of agonist-evoked current on muscle nAChR (in words)” value (from here on “inhibition of agonist-evoked current”) is “almost completely”. For the same compound, the “reversibility of inhibition of muscle nAChR” value in assay [1] (10 μM compound) is recorded as “very slowly reversible”. On to `Cn1c(=N)c2[nH]cnc2n(C)c1=O` [Compound 11, 1,3-Dimethylisoguaniniium hydrochloride], for which the “inhibition of agonist-evoked current” value in assay [1] (setting [3]) was “extremely weak, if any, activity”. On to `COc1cc(CCN)c2c(c1OC)SSSSS2` [Compound 4, Varacin], for which the half-inhibitory concentration (IC50) (in general, the concentration that gives 50% inhibition) in assay [1] worked out at 8.7 ± 0.4 µM. In assay [1] (setting [3]), the “inhibition of agonist-evoked current” value is reported as “moderate activity”. `CN/C(=N\[N+](=O)[O-])NCc1cnc(Cl)s1` [clothianidin]: the Kd (as a rule, a measure of binding affinity in units of concentration) in assay [2] is 7.3 µM. For `CC/C=C/[C@@H]1CC[C@]2(C[C@H]3CC[C@H]4[C@@H](C(=O)OC(CC)CCCCCCCCCCCCC[C@@H]5O[C@](O)(CCN)[C@H](O)N(CCCN)C5=O)[C@@]5(CCC[C@H](C)O5)NC(=N2)N34)O1` (some centres unmarked) [Compound 13, monanchocidin], the “inhibition of agonist-evoked current” value in assay [1] (setting [3]) is “almost completely”. The “reversibility of inhibition of muscle nAChR” value in assay [1] (10 μM compound) is “very slowly reversible”. Also, the half-maximal inhibitory concentration (IC50) in assay [1] (read-out: IC50, current inhibition on muscle nAChR, acetylcholine-evoked current (10 μM acetylcholine), Xenopus oocytes) was 4.1 ± 0.6 µM. As for `O=C1NCCc2cncn21` [Compound 10, 7,8-Dihydroimidazo-[1,5-c]-pyrimidin-5(6H)-one], the “inhibition of agonist-evoked current” value in assay [1] (setting [3]) was “extremely weak, if any, activity”.

On to `C[C@@H](N)[C@H](O)CCCCCCCC(=O)CCCCCCCCCCCCCC[C@@H](O[C@@H]1O[C@H](CO)[C@H](O)[C@H](O)[C@H]1O)[C@@H](C)N` [Compound 1, Rhizochalin], for which the “inhibition of agonist-evoked current” value in assay [1] (setting [3]) is given as “almost completely”. Moreover, the “reversibility of inhibition of muscle nAChR” value in assay [1] (10 μM compound) is “very slowly reversible”.

`NC1=N/C(=C2/CCNC(=O)c3[nH]ccc32)C(=O)N1` [Compound 7, Debromohymenialdesine]: the “inhibition of agonist-evoked current” value in assay [1] (setting [3]) is given as “extremely weak, if any, activity”. Take `C[N+]1=C2C=C(N)C(=O)c3[nH]cc(c32)CC1` [Compound 5, makaluvamine C]: the “inhibition of agonist-evoked current” value in assay [1] (setting [3]) is “weaker but still reproducible effect”. In the case of `C[C@@H]1C[C@@H]2c3cccc4[nH]c(Br)c(c34)C[C@H]2N(C)C1` [Compound 3, pibocin], the IC50 in assay [1] turned out to be 3.7 ± 0.2 µM. Also, the “inhibition of agonist-evoked current” value in assay [1] (setting [3]) is listed as “moderate activity”.

`C[n+]1ccccc1-c1cccc[n+]1C` [Compound 8, 1,1′-Dimethyl-[2,2′]-bipyridyldiium salt]: the “inhibition of agonist-evoked current” value in assay [1] (setting [3]) is on record as “extremely weak, if any, activity”. On to `Cn1cc2c3c1C(=O)C(N/C=C/c1ccc(O)cc1)=CC3=[N+](C)CC2` [Compound 6, makaluvamine G], for which the IC50 in assay [1] is 3.3 ± 0.3 µM. In assay [1] (setting [3]), the “inhibition of agonist-evoked current” value is listed as “almost completely”. Besides, the “receptor recovery time from the end of compound application” value in assay [1] (10 μM compound, muscle nAChR) is 5 min. Also, the “reversibility of inhibition of muscle nAChR” value in assay [1] (10 μM compound) is “fast off-set rate”. Take `COc1cc2ccnc3c2c(c1OC)NC=C3` [Compound 12, Aaptamine]: the “inhibition of agonist-evoked current” value in assay [1] (setting [3]) is listed as “moderate activity”.
